Values quoted from earlier work in patent publication US20030225048A1, “Sulfatase inhibiting continuous progestogen contraceptive regimens” (priority 2002, published 2003).

Conditions: humans; norelgestromin is the major metabolite

C#C[C@]1(OC(C)=O)CC[C@H]2[C@@H]3CCC4=CC(=NO)CC[C@@H]4[C@H]3CC[C@@]21CC (mixture of isomers) [norgestimate]
norgestimate converted to norelgestromin in vivo: ≥ 80%
